Source: paper PMC5382265, “Macrocycle peptides delineate locked-open inhibition mechanism for microorganism phosphoglycerate mutases” (Nature Communications, 2017)
Like-named read-outs stand apart in the source and are kept apart here. Positions of bridges follow the written chain, without caps; N, C: chain ends. Non-standard residues stand in square brackets, D forms with d. Residues, ends and D or L forms follow the SMILES beside them.

What was measured:
[1] = target: B. malayi iPGM (Brugia malayi, UniProt Q4VWF8); test: biochemical
[2] = target: O. volvulus iPGM (Onchocerca volvulus, UniProt I6LDA6); test: biochemical
[3] = target: E. coli iPGM (Escherichia coli, UniProt P37689); test: biochemical
[4] = target: T1, C. elegans iPGM (Caenorhabditis elegans, UniProt G5EFZ1); test: PGM enzyme-coupled bioluminescent end point assay (Kinase-Glo Plus); type: biochemical
T1 sequence (G5EFZ1 1-539): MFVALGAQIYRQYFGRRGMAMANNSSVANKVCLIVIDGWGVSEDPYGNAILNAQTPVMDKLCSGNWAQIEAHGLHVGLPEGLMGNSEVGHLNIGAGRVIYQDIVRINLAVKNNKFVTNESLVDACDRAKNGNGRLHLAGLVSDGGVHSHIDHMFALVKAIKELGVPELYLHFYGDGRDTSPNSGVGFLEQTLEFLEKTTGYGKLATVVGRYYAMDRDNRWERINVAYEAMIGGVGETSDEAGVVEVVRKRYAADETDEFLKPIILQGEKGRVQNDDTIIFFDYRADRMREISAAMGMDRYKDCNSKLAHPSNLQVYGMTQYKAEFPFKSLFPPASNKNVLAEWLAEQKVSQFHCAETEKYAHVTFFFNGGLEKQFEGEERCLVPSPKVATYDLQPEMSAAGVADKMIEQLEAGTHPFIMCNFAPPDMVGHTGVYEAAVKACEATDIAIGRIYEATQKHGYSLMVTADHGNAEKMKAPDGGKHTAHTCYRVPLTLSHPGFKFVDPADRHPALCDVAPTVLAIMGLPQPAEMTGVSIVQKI

[5] = pIC50, apparent O. volvulus iPGM
[6] = pIC50, apparent C. elegans iPGM

E. coli iPGM, sequence (P37689 whole entry, looked up): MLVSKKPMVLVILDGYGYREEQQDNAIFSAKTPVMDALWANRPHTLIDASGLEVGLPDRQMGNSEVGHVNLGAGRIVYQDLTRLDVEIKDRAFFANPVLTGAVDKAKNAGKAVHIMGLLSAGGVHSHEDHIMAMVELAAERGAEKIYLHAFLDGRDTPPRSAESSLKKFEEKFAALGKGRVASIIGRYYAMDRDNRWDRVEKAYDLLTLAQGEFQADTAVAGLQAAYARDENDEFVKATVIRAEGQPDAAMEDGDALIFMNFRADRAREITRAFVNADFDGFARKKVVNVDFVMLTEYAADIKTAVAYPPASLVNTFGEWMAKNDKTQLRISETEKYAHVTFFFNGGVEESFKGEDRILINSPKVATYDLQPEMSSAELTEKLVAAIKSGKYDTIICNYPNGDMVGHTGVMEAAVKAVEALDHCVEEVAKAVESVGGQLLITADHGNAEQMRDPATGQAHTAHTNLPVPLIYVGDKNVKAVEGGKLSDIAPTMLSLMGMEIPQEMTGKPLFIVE
B. malayi iPGM, sequence (Q4VWF8 whole entry, looked up): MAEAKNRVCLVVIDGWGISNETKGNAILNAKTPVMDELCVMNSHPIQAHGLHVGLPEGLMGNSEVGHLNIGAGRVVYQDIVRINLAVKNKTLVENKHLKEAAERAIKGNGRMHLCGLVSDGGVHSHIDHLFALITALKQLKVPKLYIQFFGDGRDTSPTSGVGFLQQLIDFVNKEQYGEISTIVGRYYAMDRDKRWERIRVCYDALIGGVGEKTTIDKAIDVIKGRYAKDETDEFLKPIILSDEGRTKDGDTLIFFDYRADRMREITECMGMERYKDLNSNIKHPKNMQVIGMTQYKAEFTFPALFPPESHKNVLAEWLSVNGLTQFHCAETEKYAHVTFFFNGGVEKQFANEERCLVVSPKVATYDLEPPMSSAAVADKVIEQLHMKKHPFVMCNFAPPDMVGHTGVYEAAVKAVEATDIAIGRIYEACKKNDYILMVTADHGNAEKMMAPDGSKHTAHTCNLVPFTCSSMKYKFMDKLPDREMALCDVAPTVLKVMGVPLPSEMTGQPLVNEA
O. volvulus iPGM, sequence (I6LDA6 whole entry, looked up): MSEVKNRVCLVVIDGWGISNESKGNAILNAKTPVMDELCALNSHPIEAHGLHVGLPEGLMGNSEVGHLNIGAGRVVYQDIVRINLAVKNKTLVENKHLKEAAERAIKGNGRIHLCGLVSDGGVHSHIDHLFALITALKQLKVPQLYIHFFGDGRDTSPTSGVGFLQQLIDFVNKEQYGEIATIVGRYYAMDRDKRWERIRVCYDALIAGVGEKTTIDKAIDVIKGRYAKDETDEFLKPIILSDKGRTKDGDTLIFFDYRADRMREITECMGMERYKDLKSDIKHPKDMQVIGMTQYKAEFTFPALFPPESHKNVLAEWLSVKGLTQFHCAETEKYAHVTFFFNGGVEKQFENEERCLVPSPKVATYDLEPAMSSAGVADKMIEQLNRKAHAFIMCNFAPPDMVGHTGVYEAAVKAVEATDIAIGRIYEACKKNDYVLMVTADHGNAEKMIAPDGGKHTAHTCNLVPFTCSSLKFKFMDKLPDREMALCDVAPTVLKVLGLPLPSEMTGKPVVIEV

Row | Compound | IC50 ([1]; pIC50 B. malayi iPGM) | IC50 ([3]; pIC50 E. coli iPGM) | IC50 ([4]; pIC50 C. elegans iPGM) | IC50 ([1]; pIC50, apparent B. malayi iPGM) | IC50 [2, 5] | IC50 ([3]; pIC50, apparent E. coli iPGM) | IC50 [4, 6] | IC50 ([2]; pIC50, M O. volvulus iPGM) | other results
1 | CC(C)C[C@H](NC(=O)[C@H](Cc1ccc(O)cc1)NC(=O)[C@@H]1CSCC(=O)N[C@H](Cc2ccc(O)cc2)C(=O)N[C@@H](CC(=O)O)C(=O)N[C@@H](Cc2ccc(O)cc2)C(=O)N2CCC[C@H]2C(=O)NCC(=O)N[C@@H](CC(=O)O)C(=O)N[C@@H](Cc2ccc(O)cc2)C(=O)N1)C(=O)N[C@@H](Cc1ccc(O)cc1)C(=O)NCC(=O)N[C@H](C(N)=O)[C@@H](C)O [Ce-2b] | 692 nM | 10.5 nM | 15.8 nM | – | – | – | – | – | IC50 ([2]; pIC50 O. volvulus iPGM): 2450 nM
2 | C[C@@H](O)[C@H](NC(=O)[C@H](CO)NC(=O)[C@@H]1CSCC(=O)N[C@H](Cc2ccc(O)cc2)C(=O)N2CCC[C@H]2C(=O)N[C@@H](CCC(=O)O)C(=O)N[C@@H](Cc2c[nH]c3ccccc23)C(=O)N2CCC[C@H]2C(=O)N[C@@H](CC(N)=O)C(=O)N1)C(=O)N[C@@H](CS)C(=O)NCC(N)=O [Bm-6] ({CH2CO}-[dY]PEWPNCSTCG-NH2; thioether N-7) | – | – | – | 692 nM | 832 nM | 2820 nM | 2630 nM | – | –
3 | CC[C@H](C)[C@@H]1NC(=O)[C@H](CCCNC(=N)N)NC(=O)[C@H](Cc2ccccc2)NC(=O)[C@@H]2CCCN2C(=O)[C@H](CC(N)=O)NC(=O)[C@H](C)NC(=O)[C@H](CC(C)C)NC(=O)[C@H]([C@@H](C)O)NC(=O)[C@H]([C@@H](C)O)NC(=O)[C@H](Cc2ccc(O)cc2)NC(=O)CSC[C@@H](C(=O)NCC(N)=O)NC(=O)[C@H](Cc2c[nH]cn2)NC(=O)[C@H](CC(C)C)NC1=O [Ce-4] ({CH2CO}-YTTLANPFRILHCG-NH2; thioether N-13) | – | – | – | – | – | – | – | 4270 nM | IC50 [4]: 6030 nM
4 | CC(C)C[C@H](NC(=O)[C@H](Cc1ccc(O)cc1)NC(=O)[C@@H]1CSCC(=O)N[C@H](Cc2ccc(O)cc2)C(=O)N[C@@H](CC(=O)O)C(=O)N[C@@H](Cc2ccc(O)cc2)C(=O)N2CCC[C@H]2C(=O)NCC(=O)N[C@@H](CC(=O)O)C(=O)N[C@@H](Cc2ccc(O)cc2)C(=O)N1)C(=O)N[C@@H](Cc1ccc(O)cc1)C(=O)NCC(=O)N[C@H](C(=O)N[C@@H](CO)C(=O)NCC(N)=O)[C@@H](C)O [Ce-2S] | 525 nM | 10 nM | 8.32 nM | – | – | – | – | 447 nM | IC50 ([1]; pIC50, M B. malayi iPGM): 407 nM; IC50 ([2]; pIC50 O. volvulus iPGM): 1020 nM; IC50 ([3]; IC50): ~10 nM; IC50 [4]: ~10 nM; IC50 ([4]; pIC50, M C. elegans iPGM): 12 nM
5 | CC(C)C[C@@H]1NC(=O)[C@@H](Cc2ccc(O)cc2)NC(=O)CSC[C@@H](C(=O)N[C@@H](CO)C(=O)N[C@H](C(=O)N[C@@H](CS)C(=O)NCC(N)=O)[C@@H](C)O)NC(=O)[C@H](CC(N)=O)NC(=O)[C@@H]2CCCN2C(=O)[C@H](Cc2c[nH]c3ccccc23)NC(=O)[C@H](CC(=O)O)NC1=O [Bm-5] ({CH2CO}-[dY]LDWPNCSTCG-NH2; thioether N-7) | – | – | – | 692 nM | 1020 nM | 2880 nM | 2510 nM | – | –
6 | CC[C@H](C)[C@@H]1NC(=O)[C@H](CCC(=O)O)NC(=O)[C@@H]2CCCN2C(=O)[C@H](C)NC(=O)[C@H](CC(N)=O)NC(=O)[C@@H]2CCCN2C(=O)[C@H](Cc2c[nH]c3ccccc23)NC(=O)[C@H](CO)NC(=O)[C@@H](Cc2ccc(O)cc2)NC(=O)CSC[C@@H](C(=O)N[C@@H](CS)C(=O)NCC(N)=O)NC(=O)[C@H](CCCCN)NC(=O)[C@H](Cc2c[nH]c3ccccc23)NC1=O [Bm-1] ({CH2CO}-[dY]SWPNAPEIWKCCG-NH2; thioether N-12) | – | – | – | 1290 nM | 1320 nM | 4900 nM | 5010 nM | – | –
7 | CC(C)[C@@H]1NC(=O)[C@H](C)NC(=O)[C@@H](Cc2ccc(O)cc2)NC(=O)CSC[C@@H](C(=O)N[C@@H](CCCNC(=N)N)C(=O)N[C@H](C(=O)N[C@@H](CS)C(=O)NCC(N)=O)[C@@H](C)O)NC(=O)[C@H](CC(N)=O)NC(=O)[C@@H]2CCCN2C(=O)[C@H](Cc2c[nH]c3ccccc23)NC1=O [Bm-7] ({CH2CO}-[dY]AVWPNCRTCG-NH2; thioether N-7) | – | – | – | 5250 nM | 4270 nM | 7590 nM | 7410 nM | – | –
8 | CC(C)C[C@@H]1NC(=O)[C@@H](Cc2ccc(O)cc2)NC(=O)CSC[C@@H](C(=O)N[C@@H](CC(N)=O)C(=O)N[C@H](C(=O)N[C@@H](CS)C(=O)NCC(N)=O)[C@@H](C)O)NC(=O)[C@H](CC(N)=O)NC(=O)[C@@H]2CCCN2C(=O)[C@H](Cc2c[nH]c3ccccc23)NC(=O)[C@H](CCC(=O)O)NC1=O [Bm-4] ({CH2CO}-[dY]LEWPNCNTCG-NH2; thioether N-7) | – | – | – | 575 nM | 794 nM | 2750 nM | 2450 nM | – | –
9 | NC(=O)[C@H](Cc1ccc(O)cc1)NC(=O)[C@@H]1CSCC(=O)N[C@H](Cc2ccc(O)cc2)C(=O)N[C@@H](CC(=O)O)C(=O)N[C@@H](Cc2ccc(O)cc2)C(=O)N2CCC[C@H]2C(=O)NCC(=O)N[C@@H](CC(=O)O)C(=O)N[C@@H](Cc2ccc(O)cc2)C(=O)N1 [Ce-2f] ({CH2CO}-[dY]DYPGDYCY-NH2; thioether N-8) | – | 25700 nM | 51300 nM | – | – | – | – | – | –
10 | CC(C)C[C@H](NC(=O)[C@H](Cc1ccc(O)cc1)NC(=O)[C@@H]1CSCC(=O)N[C@H](Cc2ccc(O)cc2)C(=O)N[C@@H](CC(=O)O)C(=O)N[C@@H](Cc2ccc(O)cc2)C(=O)N2CCC[C@H]2C(=O)NCC(=O)N[C@@H](CC(=O)O)C(=O)N[C@@H](Cc2ccc(O)cc2)C(=O)N1)C(=O)N[C@@H](Cc1ccc(O)cc1)C(=O)NCC(=O)N[C@H](C(=O)N[C@@H](CS)C(N)=O)[C@@H](C)O [Ce-2a] | 0.324 nM | 0.263 nM | 0.174 nM | – | – | – | – | 49 nM | IC50 ([1]; pIC50, M B. malayi iPGM): 8.51 nM; IC50 ([2]; pIC50 O. volvulus iPGM): 0.209 nM; IC50 ([3]; pIC50, M E. coli iPGM): 3.09 nM; IC50 ([4]; pIC50, M C. elegans iPGM): 4.07 nM
11 | CC[C@H](C)[C@@H]1NC(=O)[C@H](CCCNC(=N)N)NC(=O)[C@H](Cc2ccccc2)NC(=O)[C@@H]2CCCN2C(=O)[C@H](CC(N)=O)NC(=O)[C@H](C)NC(=O)[C@H](CC(C)C)NC(=O)[C@H]([C@@H](C)O)NC(=O)[C@H]([C@@H](C)CC)NC(=O)[C@H](Cc2ccc(O)cc2)NC(=O)CSC[C@@H](C(=O)NCC(N)=O)NC(=O)[C@H](Cc2c[nH]cn2)NC(=O)[C@H](CC(C)C)NC1=O [Ce-3] ({CH2CO}-YITLANPFRILHCG-NH2; thioether N-13) | – | – | – | – | – | 537 nM | – | 5500 nM | IC50 [4]: 468 nM
12 | CC(C)C[C@H](NC(=O)[C@H](Cc1ccc(O)cc1)NC(=O)[C@@H]1CSCC(=O)N[C@H](Cc2ccc(O)cc2)C(=O)N[C@@H](CC(=O)O)C(=O)N[C@@H](Cc2ccc(O)cc2)C(=O)N2CCC[C@H]2C(=O)NCC(=O)N[C@@H](CC(=O)O)C(=O)N[C@@H](Cc2ccc(O)cc2)C(=O)N1)C(=O)N[C@@H](Cc1ccc(O)cc1)C(=O)NCC(N)=O [Ce-2c] | 1170 nM | 10.5 nM | 22.9 nM | – | – | – | – | – | IC50 ([2]; pIC50 O. volvulus iPGM): 3890 nM
13 | CC[C@H](C)[C@@H]1NC(=O)[C@H](CO)NC(=O)[C@H](CCCNC(=N)N)NC(=O)[C@H](CC(N)=O)NC(=O)[C@H](CCC(N)=O)NC(=O)[C@@H](Cc2ccc(O)cc2)NC(=O)CSC[C@@H](C(=O)NCC(N)=O)NC(=O)[C@H](CS)NC(=O)CNC(=O)[C@H](Cc2ccc(O)cc2)NC(=O)[C@H](CC(C)C)NC(=O)[C@H](Cc2c[nH]c3ccccc23)NC1=O [Bm-3] ({CH2CO}-[dY]QNRSIWLYGCCG-NH2; thioether N-12) | – | – | – | – | – | – | – | – | pIC50, apparent E. coli iPGM [3]: 5.03; pIC50, apparent C. elegans iPGM [4]: 5.05
14 | CC(C)C[C@H](NC(=O)[C@H](Cc1ccc(O)cc1)NC(=O)[C@@H]1CSCC(=O)N[C@H](Cc2ccc(O)cc2)C(=O)N[C@@H](CC(=O)O)C(=O)N[C@@H](Cc2ccc(O)cc2)C(=O)N2CCC[C@H]2C(=O)NCC(=O)N[C@@H](CC(=O)O)C(=O)N[C@@H](Cc2c[nH]cn2)C(=O)N1)C(=O)N[C@@H](Cc1ccc(O)cc1)C(=O)NCC(=O)N[C@H](C(=O)N[C@@H](CS)C(=O)NCC(N)=O)[C@@H](C)O [Ce-1] | – | – | – | 12 nM | – | 4.17 nM | 3.98 nM | 24.5 nM | –
15 | CC(=O)N[C@H](Cc1ccc(O)cc1)C(=O)N[C@@H](CC(=O)O)C(=O)N[C@@H](Cc1ccc(O)cc1)C(=O)N1CCC[C@H]1C(=O)NCC(=O)N[C@@H](CC(=O)O)C(=O)N[C@@H](Cc1ccc(O)cc1)C(=O)N[C@@H](CO)C(=O)N[C@@H](Cc1ccc(O)cc1)C(=O)N[C@@H](CC(C)C)C(=O)N[C@@H](Cc1ccc(O)cc1)C(=O)NCC(=O)N[C@H](C(=O)N[C@@H](CS)C(=O)NCC(N)=O)[C@@H](C)O [Ce-L2] (Ac-[dY]DYPGDYSYLYGTCG-NH2) | 12900 nM | 1320 nM | 1150 nM | – | – | – | – | – | –
